Results: ChEMBL document CHEMBL1201862, “PubChem BioAssay data set” (2004)
Activity calls are given as the source filed them.

How the values were obtained:
[1] = biological target: T1, Sentrin-specific protease 8 (Homo sapiens, UniProt Q96LD8); type: functional
T1 sequence (Q96LD8 whole entry): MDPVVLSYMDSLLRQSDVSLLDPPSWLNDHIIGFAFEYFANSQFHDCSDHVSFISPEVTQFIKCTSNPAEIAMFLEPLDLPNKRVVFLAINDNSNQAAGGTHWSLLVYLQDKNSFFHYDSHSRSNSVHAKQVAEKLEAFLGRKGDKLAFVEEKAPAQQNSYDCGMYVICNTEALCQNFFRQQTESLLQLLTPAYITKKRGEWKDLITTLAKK

[2] = biological target: T1, Sentrin-specific protease 8; type: functional; remark: listed apart in the source
Beta-galactosidase [3] = biological target: T2, Beta-galactosidase (Escherichia coli, UniProt Q8VNN2); test: beta-galactosidase enzyme inhibitors and activators, dose response, artefact control for CCR6 antagonist project, biochemical, E. coli enzyme, set 3 (AID 504712); type: functional
[4] = biological target: T3, Zinc finger protein mex-5 (Caenorhabditis elegans, UniProt Q9XUB2); test: MEX-5/TCR-2 RNA interaction inhibitors, dose response, biochemical, C. elegans, fluorescence polarization (AID 1960)
T3 sequence (Q9XUB2 whole entry): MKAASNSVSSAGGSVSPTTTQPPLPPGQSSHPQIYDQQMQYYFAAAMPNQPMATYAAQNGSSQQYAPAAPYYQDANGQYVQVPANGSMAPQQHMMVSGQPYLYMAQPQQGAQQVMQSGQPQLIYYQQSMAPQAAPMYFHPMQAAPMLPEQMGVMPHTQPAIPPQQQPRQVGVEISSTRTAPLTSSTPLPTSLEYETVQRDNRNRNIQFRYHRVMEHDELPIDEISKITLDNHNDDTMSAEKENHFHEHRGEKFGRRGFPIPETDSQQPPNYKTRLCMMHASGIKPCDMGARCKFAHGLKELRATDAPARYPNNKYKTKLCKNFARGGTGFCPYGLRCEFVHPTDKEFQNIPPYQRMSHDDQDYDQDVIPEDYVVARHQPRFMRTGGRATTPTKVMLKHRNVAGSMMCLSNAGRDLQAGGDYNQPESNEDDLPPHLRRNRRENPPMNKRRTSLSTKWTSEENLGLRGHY

Vero = test: cells; type: functional; settings: Chlorocebus sabaeus
[5] = biological target: T4, Histone-lysine N-methyltransferase NSD2 (Homo sapiens, UniProt O96028); type: biochemical
T4 sequence (O96028 whole entry): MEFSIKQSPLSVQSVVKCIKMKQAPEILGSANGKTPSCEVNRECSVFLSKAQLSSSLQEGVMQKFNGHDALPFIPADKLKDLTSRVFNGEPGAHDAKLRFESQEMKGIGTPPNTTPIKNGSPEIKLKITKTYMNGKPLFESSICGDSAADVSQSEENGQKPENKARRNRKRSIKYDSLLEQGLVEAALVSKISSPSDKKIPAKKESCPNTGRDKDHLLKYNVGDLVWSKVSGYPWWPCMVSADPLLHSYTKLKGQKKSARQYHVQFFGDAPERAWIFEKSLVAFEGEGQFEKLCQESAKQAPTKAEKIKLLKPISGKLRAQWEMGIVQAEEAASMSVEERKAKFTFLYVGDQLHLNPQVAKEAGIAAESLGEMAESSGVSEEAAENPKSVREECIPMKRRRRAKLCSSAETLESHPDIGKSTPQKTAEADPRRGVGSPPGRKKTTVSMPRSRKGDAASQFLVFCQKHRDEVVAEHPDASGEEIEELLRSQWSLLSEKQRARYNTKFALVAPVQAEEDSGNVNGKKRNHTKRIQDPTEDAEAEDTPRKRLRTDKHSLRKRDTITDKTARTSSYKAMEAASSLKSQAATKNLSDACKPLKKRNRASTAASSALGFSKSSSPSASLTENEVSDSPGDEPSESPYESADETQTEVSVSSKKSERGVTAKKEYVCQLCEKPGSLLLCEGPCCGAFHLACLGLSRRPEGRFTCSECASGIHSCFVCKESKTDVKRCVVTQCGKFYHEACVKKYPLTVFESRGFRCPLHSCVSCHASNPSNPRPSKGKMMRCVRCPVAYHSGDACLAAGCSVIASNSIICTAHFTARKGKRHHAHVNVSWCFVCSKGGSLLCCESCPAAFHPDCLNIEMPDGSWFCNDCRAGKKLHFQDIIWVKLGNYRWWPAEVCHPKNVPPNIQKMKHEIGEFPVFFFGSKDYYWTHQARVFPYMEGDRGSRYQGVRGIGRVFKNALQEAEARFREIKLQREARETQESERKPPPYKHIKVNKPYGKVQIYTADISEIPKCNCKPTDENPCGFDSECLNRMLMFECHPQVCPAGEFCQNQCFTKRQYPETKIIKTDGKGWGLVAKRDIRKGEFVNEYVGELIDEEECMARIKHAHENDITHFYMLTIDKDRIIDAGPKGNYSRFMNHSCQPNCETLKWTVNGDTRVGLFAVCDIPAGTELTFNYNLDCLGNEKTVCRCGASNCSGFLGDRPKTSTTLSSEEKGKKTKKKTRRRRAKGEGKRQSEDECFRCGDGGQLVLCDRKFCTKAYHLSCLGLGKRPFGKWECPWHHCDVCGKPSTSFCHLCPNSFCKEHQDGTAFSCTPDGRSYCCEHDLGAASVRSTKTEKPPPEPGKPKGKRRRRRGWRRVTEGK

[6] = biological target: Serine/threonine-protein phosphatase (Homo sapiens, UniProt Q9BPW0); test: PP5 phosphatase inhibitors, dose response, biochemical, fluorescence (AID 2395)
[7] = HepG2 cell cytotoxicity, dose response, cytotoxicity control for Shn3 inhibitor project, CellTiter-Glo, cherry-picked (AID 624134); type: functional, cell-based
Wee1-like protein kinase = Wee1-like protein kinase (Homo sapiens, UniProt P30291); test: Dose Response Cell-based Assay for Inhibitors of Wee1 Degradation. [Related pubchem assays: 1410, 1321 ]; type: functional
[8] = biological target: Type-1 angiotensin II receptor (Homo sapiens, UniProt P30556); test: AT1 receptor antagonists, dose response, selectivity assay for APJ receptor antagonist project, cell-based, uHTS hits (AID 463214); type: functional;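 note: antagonist potency against angiotensin II stimulated AT1 response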
[9] = growth suppression of beta-catenin-knockout colon cells, dose response, cell-based, HCT116, human colon tumor (AID 1045); type: functional;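 note: HCT116 colon tumor cells with beta catenin knocked out; cells exposed to compound for 60 hours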
[10] = inhibitors of PGC1a acetylation in cells, dose response, cell-based, cherry-picked samples (AID 720514); type: functional;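 note: potency may reflect raised or lowered acetylation signal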
Beta-galactosidase [11] = biological target: T2, Beta-galactosidase; test: PubChem AID 485352; type: functional
[12] = biological target: Sphingosine 1-phosphate receptor 2 (Homo sapiens, UniProt O95136); test: Dose Response Cell Based Assay for Antagonists of the S1P2 Receptor. [Related pubchem assays: 856, 736 ]; type: functional
[13] = biological target: Kappa-type opioid receptor (Homo sapiens, UniProt P41145); type: functional
[14] = Shn3 3'UTR reporter inhibitors, dose response, cell-based, Clone20 osteoblasts, firefly luciferase, cherry-picked (AID 624132); type: functional;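 note: firefly luciferase luminescence from reporter carrying the Shn3 3'UTR in osteoblasts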
Beta Lactamase = Beta Lactamase (Pseudomonas aeruginosa, UniProt Q932Y6); test: beta-lactamase reporter inhibitor potency, dose response, artefact control for TLR9-MyD88 binding inhibitor project, BLA reporter cells, FRET fluorescence (AID 588341); type: cell-based;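 note: cell based assay in CHO-K1 cells stably expressing beta-lactamase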
Chain of Beta Lactamase (Q932Y6 whole entry): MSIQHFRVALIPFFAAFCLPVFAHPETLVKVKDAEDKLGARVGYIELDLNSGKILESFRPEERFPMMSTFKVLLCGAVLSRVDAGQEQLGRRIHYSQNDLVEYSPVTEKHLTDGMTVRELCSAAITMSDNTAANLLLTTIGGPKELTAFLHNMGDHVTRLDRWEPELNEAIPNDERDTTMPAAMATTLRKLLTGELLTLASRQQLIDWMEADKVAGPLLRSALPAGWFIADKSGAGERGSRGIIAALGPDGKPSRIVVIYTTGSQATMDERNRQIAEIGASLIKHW

T2 sequence (Q8VNN2 whole entry): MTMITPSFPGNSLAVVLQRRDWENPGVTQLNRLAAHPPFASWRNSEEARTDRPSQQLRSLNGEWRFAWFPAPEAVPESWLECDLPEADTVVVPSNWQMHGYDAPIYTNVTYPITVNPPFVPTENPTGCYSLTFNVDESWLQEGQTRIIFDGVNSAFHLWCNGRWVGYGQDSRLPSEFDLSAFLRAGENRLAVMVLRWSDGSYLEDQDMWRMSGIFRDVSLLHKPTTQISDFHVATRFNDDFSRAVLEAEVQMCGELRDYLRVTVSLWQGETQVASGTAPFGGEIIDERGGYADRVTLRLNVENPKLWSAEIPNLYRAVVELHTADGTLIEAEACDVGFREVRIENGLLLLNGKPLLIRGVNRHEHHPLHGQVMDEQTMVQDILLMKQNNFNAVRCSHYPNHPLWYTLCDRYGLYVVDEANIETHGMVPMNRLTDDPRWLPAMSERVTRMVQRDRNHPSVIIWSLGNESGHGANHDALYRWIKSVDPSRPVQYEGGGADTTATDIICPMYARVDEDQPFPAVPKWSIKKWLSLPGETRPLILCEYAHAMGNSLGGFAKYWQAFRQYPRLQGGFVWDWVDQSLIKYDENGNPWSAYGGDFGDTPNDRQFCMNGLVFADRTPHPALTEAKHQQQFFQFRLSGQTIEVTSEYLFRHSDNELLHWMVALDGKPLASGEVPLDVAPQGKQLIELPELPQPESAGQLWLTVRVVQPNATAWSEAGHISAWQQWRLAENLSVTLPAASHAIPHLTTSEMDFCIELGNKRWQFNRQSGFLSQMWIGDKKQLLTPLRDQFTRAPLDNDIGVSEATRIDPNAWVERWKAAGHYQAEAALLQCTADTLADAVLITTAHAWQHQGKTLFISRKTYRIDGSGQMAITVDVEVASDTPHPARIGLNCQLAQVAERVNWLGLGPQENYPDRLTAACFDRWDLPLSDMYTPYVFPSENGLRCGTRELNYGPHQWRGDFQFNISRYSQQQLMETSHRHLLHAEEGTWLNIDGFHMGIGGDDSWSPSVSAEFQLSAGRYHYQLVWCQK
Chain of Sphingosine 1-phosphate receptor 2 (O95136 whole entry): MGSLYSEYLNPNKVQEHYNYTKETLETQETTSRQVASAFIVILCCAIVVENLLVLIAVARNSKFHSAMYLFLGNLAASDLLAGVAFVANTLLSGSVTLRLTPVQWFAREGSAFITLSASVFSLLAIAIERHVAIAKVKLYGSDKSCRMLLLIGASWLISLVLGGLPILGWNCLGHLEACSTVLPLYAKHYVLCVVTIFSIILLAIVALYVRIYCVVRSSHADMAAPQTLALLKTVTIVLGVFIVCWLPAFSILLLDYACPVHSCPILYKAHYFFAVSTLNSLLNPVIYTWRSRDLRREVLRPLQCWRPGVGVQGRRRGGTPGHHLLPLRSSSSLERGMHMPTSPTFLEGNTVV
Chain of Type-1 angiotensin II receptor (P30556 whole entry): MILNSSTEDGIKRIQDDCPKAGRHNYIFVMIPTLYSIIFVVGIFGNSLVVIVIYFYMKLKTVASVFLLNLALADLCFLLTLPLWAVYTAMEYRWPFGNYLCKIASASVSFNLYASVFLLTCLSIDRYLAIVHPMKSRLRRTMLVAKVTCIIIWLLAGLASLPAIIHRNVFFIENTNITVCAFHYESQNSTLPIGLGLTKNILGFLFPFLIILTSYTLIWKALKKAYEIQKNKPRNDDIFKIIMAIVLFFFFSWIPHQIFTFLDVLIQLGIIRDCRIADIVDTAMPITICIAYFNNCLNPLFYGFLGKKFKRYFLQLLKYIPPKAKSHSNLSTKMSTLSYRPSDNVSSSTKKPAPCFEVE
Chain of Serine/threonine-protein phosphatase (Q9BPW0 whole entry): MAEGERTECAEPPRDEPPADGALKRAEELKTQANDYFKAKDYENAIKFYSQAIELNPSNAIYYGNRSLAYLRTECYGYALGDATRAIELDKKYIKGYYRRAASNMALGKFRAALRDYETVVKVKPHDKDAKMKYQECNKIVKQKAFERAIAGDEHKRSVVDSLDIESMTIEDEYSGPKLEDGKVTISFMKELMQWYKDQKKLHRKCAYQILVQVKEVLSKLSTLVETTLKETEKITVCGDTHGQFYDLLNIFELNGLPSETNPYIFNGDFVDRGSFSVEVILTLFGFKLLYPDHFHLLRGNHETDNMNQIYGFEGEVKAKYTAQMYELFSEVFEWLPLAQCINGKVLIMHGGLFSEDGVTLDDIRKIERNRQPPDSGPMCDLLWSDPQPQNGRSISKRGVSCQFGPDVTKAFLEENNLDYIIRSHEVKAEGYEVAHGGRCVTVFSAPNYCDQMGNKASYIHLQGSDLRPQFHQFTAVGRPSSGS
Chain of Kappa-type opioid receptor (P41145 whole entry): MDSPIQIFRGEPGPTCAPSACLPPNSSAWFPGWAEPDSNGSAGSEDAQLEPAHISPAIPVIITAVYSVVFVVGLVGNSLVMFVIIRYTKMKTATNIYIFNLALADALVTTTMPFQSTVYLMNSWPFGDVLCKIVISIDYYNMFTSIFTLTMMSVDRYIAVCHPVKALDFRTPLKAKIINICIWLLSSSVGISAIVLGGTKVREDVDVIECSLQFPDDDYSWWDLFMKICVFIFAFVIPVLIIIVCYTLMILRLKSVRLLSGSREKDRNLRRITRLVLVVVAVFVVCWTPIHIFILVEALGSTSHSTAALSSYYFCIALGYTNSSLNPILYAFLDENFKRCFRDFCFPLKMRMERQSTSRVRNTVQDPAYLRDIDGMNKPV
Chain of Wee1-like protein kinase (P30291 whole entry): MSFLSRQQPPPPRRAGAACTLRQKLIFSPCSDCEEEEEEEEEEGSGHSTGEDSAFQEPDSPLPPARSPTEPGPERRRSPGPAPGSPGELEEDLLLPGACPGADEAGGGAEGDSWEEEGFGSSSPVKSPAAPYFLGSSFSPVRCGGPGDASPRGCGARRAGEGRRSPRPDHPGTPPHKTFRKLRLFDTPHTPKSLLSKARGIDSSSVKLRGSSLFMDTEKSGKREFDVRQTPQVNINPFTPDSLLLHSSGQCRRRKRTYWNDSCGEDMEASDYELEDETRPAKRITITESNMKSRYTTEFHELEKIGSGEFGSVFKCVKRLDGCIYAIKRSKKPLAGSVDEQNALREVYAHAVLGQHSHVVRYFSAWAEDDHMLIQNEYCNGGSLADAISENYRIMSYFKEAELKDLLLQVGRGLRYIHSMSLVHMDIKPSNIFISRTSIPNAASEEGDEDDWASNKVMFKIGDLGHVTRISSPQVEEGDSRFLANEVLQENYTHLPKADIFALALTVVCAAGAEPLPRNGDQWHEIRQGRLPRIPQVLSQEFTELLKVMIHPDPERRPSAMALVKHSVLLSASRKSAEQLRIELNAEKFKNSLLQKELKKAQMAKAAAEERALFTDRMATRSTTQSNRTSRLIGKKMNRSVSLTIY

SMILES: Nc1ccc(N2CCCCC2)c2nonc12
- IC50 [1]: 3.28 µM (active)
- IC50 [2]: 1.06 µM (active)

SMILES: Cc1ccc(S(=O)(=O)/N=C2\C=C(Nc3cccc(C(=O)O)c3)C(=O)c3ccccc32)c(C)c1
- IC50 (Beta-galactosidase [3]): 43.5 µM (inactive)
- EC50 [4]: 31.7 µM (active)
- CC50 (Vero): > 25 µM (active)
- AC50 [5]: 0.255 µM (active)
- IC50 [6]: 12.3 µM (not active)

SMILES: COc1ccc(NC(=O)/C(Cl)=C(/Cl)[S+]([O-])Cc2ccccc2)cn1 (configuration not stated)
- AC50 [7]: 5.52 µM (active)
- EC50 (Wee1-like protein kinase): > 49.7 µM (not active)
- IC50 [8]: 3.93 µM (active)
- EC50 [9]: 0.185 µM (active)
- AC50 [10]: 1.65 µM (active)
- EC50 (Beta-galactosidase [11]): > 40 µM (inactive)
- IC50 [12]: 0.942 µM (active)
- IC50 [13]: 7.1 µM (active)
- AC50 [14]: < 0.26 µM (active)
- IC50 (Beta Lactamase): 16 µM (inactive)
